Laboratory results published in patent US20160175380A1, “Compositions and Methods of Treatment of Corneal Endothelium Disorders” (The Schepens Eye Research Institute, Inc., priority 2010, published 2016).
Read-outs that look alike come from different tables or passages of the source.

Tests used:
[1] = tested on: mouse corneal endothelium; conditions: 1 μM
Description: (§1) Corneal Whole Mount Assays. Eight (8-) to 12-wk-old male BALB/c and C57BL/6 (from Taconic Farms, Germantown, NY and our own breeding facility) were used for corneal whole mount assays. All protocols were approved by the Schepens Eye Research Institute Animal Care and Use Committee, and all animals were treated according to the Association for Research in Vision and Ophthalmology Statement for the Use of Animals in Ophthalmic and Vision Research. […] Control corneal buttons were incubated in DMEM only at 37° C. for 0-12 hours. Immunocytochemistry. Immunocytochemistry was performed as previously described.17 Normal, FECD, and PBK corneas were incubated in culture medium containing 100 nM MitoTracker Red CMXRos (Molecular Probes) for 30 minutes at 37° C., then fixed with 3.7% formaldehyde. […] Millipore) followed by incubation with appropriate secondary antibodies. Nuclei were stained with TO-[…] iodide (Molecular Probes). […] Invitrogen). […] Bioscience), propidium iodide (1:200; Invitrogen), and TUNEL assay (In Situ Cell Death Detection Kit, Roche Diagnostics GmbH) according to the manufacturers' instructions. Digital images were obtained using a spectral photometric confocal microscope ([…][…] with LCS 1.3.1 software).

[2] = tested on: Nrf2 mRNA expression in HCECi; conditions: H2O2 200 μM, 2 hours; normalized to B2M; non-treated control 1.00±0.05; P=0.004
Description: Human Corneal Endothelial Cell Culture. […] The culture medium of subconfluent cells was replaced with serum-free medium (OptiMEM-1; Invitrogen-Life Technologies) alone or supplemented with H2O2 (200 μM) and incubated for 2 hours at 37° C. At the end of the treatment, cell viability was evaluated by trypan blue staining. Real-time PCR. […] Reverse transcription was performed using a commercially available kit (Promega). […] Real-time PCR reactions were run on an ABI Prism 7500 HT Sequence Detection System (Applied Biosystems). For data analysis, the comparative Ct method was performed.

[3] = tested on: HCECi; conditions: H2O2 200 μM, 2 hours; P=0.001
Description: Human Corneal Endothelial Cell Culture. […] The culture medium of subconfluent cells was replaced with serum-free medium (OptiMEM-1; Invitrogen-Life Technologies) alone or supplemented with H2O2 (200 μM) and incubated for 2 hours at 37° C. At the end of the treatment, cell viability was evaluated by trypan blue staining.

[4] = tested on: mouse corneal endothelium; conditions: 30 minutes
Description: as §1, with “software). Analysis of CE Cell Morphology. […] (variation in cell size) and pleomorphism (variation in cell shape) were then calculated.” for “software).”

[5] = tested on: FECD corneal endothelium attached to the Descemet membrane; assay: Endothelial cell apoptosis (TUNEL) in post-keratoplasty FECD specimens, +/- tBHP; assay type: cell-based, human
Description: Immunocytochemistry. […] After permeabilization, corneas were incubated with goat anti-8-OHdG (1:200; Millipore) followed by incubation with appropriate secondary antibodies. Nuclei were stained with TO-PRO-3 iodide (Molecular Probes). Corneal endothelial tight junctions were detected by rabbit anti-zonula occludens-1 (anti-ZO-1) antibody (1:300; Invitrogen).
An Nrf2-controlled pathway is affected during the endothelial cell loss from surgery and from dystrophic degeneration. […] Nrf2 is a transcription factor that causes a coordinated upregulation of multiple antioxidants, such as glutathione transferases, glutathione peroxidases, peroxiredoxins, thioredoxins, NADH(P)H hydrogenases, heme-oxygenases, glutamate- cysteine ligases. Sulforaphane (SF) and D3T upregulate Nrf2 on a protein level and enhance cellular antioxidant defense. Thus, studies were carried out to investigate the effect of SF on endothelial cell apoptosis with and without pro-oxidants. Post-keratoplasty FECD specimens, containing corneal endothelium attached to the Descemet membrane, were exposed to four experimental conditions: +/− tBHP with is a long acting pro-oxidant and +/−SF. The rate of endothelial cell apoptosis (as detected by TUNEL) in FECD endothelium was 31% and it decreased to 13% (p=1.5E-06) with SF treatment. Under pro-oxidant conditions, SF decreased endothelial cell apoptosis from 60% to 33% (p=0.016) (FIG. 11A). Similarly, D3T diminished endothelial cell apoptosis by decreasing the number of apoptotic cells from 52% to 30% (p<0.05) (FIG. 11B).

## OO [H2O2, hydrogen peroxide]
[1]; 1-hour treatment
  mitochondrial staining (MitoTracker CMXRos): decline in the mitochondrial density
[1]; 2-hour treatment, P<0.01
  mitochondrial staining (MitoTracker CMXRos): no detectable mitochondrial staining
[1]; 60 minutes, P<0.01
  CE cells with early apoptosis (annexin-V-positive, PI-negative): Approximately 5%
[1]; 90 minutes, P<0.01
  CE cells with early apoptosis (annexin-V-positive, PI-negative): ~11%
  mitochondrial staining (MitoTracker CMXRos): significant decrease
[1]; 120 minutes, P<0.01
  late apoptosis (annexin-V-positive, PI-positive): identified
[2]
  relative expression of Nrf2 mRNA (mean±SEM): 0.66±0.02
[3]
  level of 8-OHdG relative to control cells: 2 fold
[4]; 0-100 μM
  CE cell density as measured by ZO-1 labeling: no statistically significant effect
[4]; 100 μM, P=0.007
  percent of hexagonal cells (pleomorphism): declined significantly

## S=c1ccss1 [D3T, 3H-1,2-dithiole-3-thione]
[5]; FECD, absence of oxidative stress, 52% without D3T, p<0.05
  number of apoptotic cells with D3T: 30%
[5]; absence of oxidative stress
  effect on percentage of apoptotic cells in FECD: decreased the percentage of apoptotic cells

## C[S+]([O-])CCCCN=C=S (stereo not shown) [SF, sulforaphane]
[5]; FECD endothelium, without pro-oxidant (tBHP-), 31% without SF, p=1.5E-06
  rate of endothelial cell apoptosis (as detected by TUNEL) with SF treatment: 13%
[5]; FECD specimens exposed to tBHP, 60% without SF, p=0.016
  endothelial cell apoptosis with SF under pro-oxidant conditions: 33%
[5]; SF treatment, without pro-oxidant conditions [tBHP-], p=1.57E-06
  decrease of endothelial cell apoptosis in FECD: 58%
[5]; specimens exposed to pro-oxidants or tBHP, p=0.016
  decrease of endothelial cell apoptosis: ≤ 45%
